In PubChem BioAssay AID342 (DTP/NCI, 2004):
Several values for one entry are separate records, joined by “and”; a condition that tells them apart may be missing. Identical values can stand only once.

Test system: Swiss mice, Sarcoma 180 sc, mean tumor weight T/C
Assay: NCI In Vivo Anticancer Drug Screen. Data for tumor model Sarcoma 180 (subcutaneous) in Swiss mice
Conditions: endpoint: mean tumor weight, higher = larger tumour
How it was run: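 Tumor-bearing mice, transplantable tumor; readout survival or tumor size; result = T/C, treated vs vehicle control.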

[1] = dose: 60.0 mg/kg/injection, schedule: Q01DX007 (ip), vehicle: other

Q: Cn1cnc([N+](=O)[O-])c1Sc1nc(N)nc2nc[nH]c12 was tested. Which T/C (dose: 1.35 mg/kg/injection, schedule: Q#A X014 (ip), vehicle: methylcellulose (MC)) did it give?
A: Its T/C is 95 % of control.

Q: What about the T/C (dose: 3.0 mg/kg/injection, schedule: Q#A X014 (ip), vehicle: methylcellulose (MC)) of the same molecule?
A: Its T/C is 31 % of control.

Q: What about the T/C (dose: 5.0 mg/kg/injection, schedule: Q#A X014 (ip), vehicle: methylcellulose (MC)) of the same molecule?
A: Its T/C is 27 % of control.

Q: And the T/C (dose: 5.15 mg/kg/injection, schedule: Q#A X014 (ip), vehicle: methylcellulose (MC))?
A: Its T/C is 29 % of control.

Q: And the T/C (dose: 7.5 mg/kg/injection, schedule: Q#A X014 (ip), vehicle: methylcellulose (MC))?
A: Its T/C is 22 % of control.

Q: What about the T/C (dose: 7.75 mg/kg/injection, schedule: Q#A X014 (ip), vehicle: methylcellulose (MC)) of the same molecule?
A: Its T/C is 29 % of control.

Q: What about the T/C (dose: 11.5 mg/kg/injection, schedule: Q#A X014 (ip), vehicle: methylcellulose (MC)) of the same molecule?
A: The T/C was 3 % of control.

Q: How did the T/C (dose: 62.5 mg/kg/injection, schedule: Q01DX007 (ip), vehicle: carboxymethylcellulose (CMC)) turn out when CN(C)Cc1c[nH]c2ccccc12 was run?
A: The T/C was 69 % of control.

Q: With COC12C(COC(N)=O)C3=C(C(=O)C(C)=C(N)C3=O)N1CC1C2N1C (configuration not stated) as the molecule, how does the T/C (dose: 0.62 mg/kg/injection, schedule: Q#A X014 (ip), vehicle: carboxymethylcellulose (CMC)) read?
A: The T/C was 62 % of control.

Q: And the T/C (dose: 1.25 mg/kg/injection, schedule: Q#A X014 (ip), vehicle: carboxymethylcellulose (CMC))?
A: Its T/C is 123 % of control.

Q: And the T/C (dose: 7.5 mg/kg/injection, schedule: Q#A X014 (ip), vehicle: carboxymethylcellulose (CMC))?
A: Its T/C is 65 % of control.

Q: What about the T/C (dose: 15.0 mg/kg/injection, schedule: Q#A X014 (ip), vehicle: carboxymethylcellulose (CMC)) of the same molecule?
A: The T/C was 6 % of control and 16 % of control and 25 % of control.

Q: And the T/C (dose: 20.0 mg/kg/injection, schedule: Q#A X014 (ip), vehicle: carboxymethylcellulose (CMC))?
A: Its T/C is 2 % of control.

Q: How did the T/C [1] turn out when O=C1C=CC(=O)N1c1ccc2c(c1)oc(=O)c1ccccc12 was run?
A: Its T/C is 76 % of control.

Q: And the T/C (dose: 95.0 mg/kg/injection, schedule: Q01DX007 (ip), vehicle: other)?
A: The T/C was 58 % of control.

Q: And the T/C (dose: 99.0 mg/kg/injection, schedule: Q01DX007 (ip), vehicle: steriod suspending solution)?
A: The T/C was 51 % of control.

Q: And the T/C (dose: 148.0 mg/kg/injection, schedule: Q01DX007 (ip), vehicle: other)?
A: The T/C was 42 % of control.

Q: What about the T/C (dose: 148.0 mg/kg/injection, schedule: Q01DX007 (ip), vehicle: steriod suspending solution) of the same molecule?
A: The T/C was 81 % of control.

Q: What about the T/C (dose: 222.0 mg/kg/injection, schedule: Q01DX007 (ip), vehicle: other) of the same molecule?
A: The T/C was 36 % of control and 44 % of control.

Q: And the T/C (dose: 222.0 mg/kg/injection, schedule: Q01DX007 (ip), vehicle: steriod suspending solution)?
A: Its T/C is 69 % of control.

Q: And the T/C (dose: 333.0 mg/kg/injection, schedule: Q01DX007 (ip), vehicle: other)?
A: Its T/C is 49 % of control.

Q: What about the T/C (dose: 500.0 mg/kg/injection, schedule: Q01DX007 (ip), vehicle: other) of the same molecule?
A: The T/C was 29 % of control.

Q: For S=c1nc[nH]c2nc[nH]c12, which T/C (dose: 3.25 mg/kg/injection, schedule: Q#A X014 (ip), vehicle: carboxymethylcellulose (CMC)) is on record?
A: Its T/C is 62 % of control.

Q: What about the T/C (dose: 3.62 mg/kg/injection, schedule: Q#A X014 (ip), vehicle: carboxymethylcellulose (CMC)) of the same molecule?
A: The T/C was 83 % of control.

Q: What about the T/C (dose: 6.5 mg/kg/injection, schedule: Q#A X014 (ip), vehicle: carboxymethylcellulose (CMC)) of the same molecule?
A: Its T/C is 61 % of control.

Q: And the T/C (dose: 7.25 mg/kg/injection, schedule: Q#A X014 (ip), vehicle: carboxymethylcellulose (CMC))?
A: The T/C was 56 % of control.

Q: What about the T/C (dose: 7.5 mg/kg/injection, schedule: Q01DX007 (ip), vehicle: other) of the same molecule?
A: The T/C was 102 % of control.

Q: What about the T/C (dose: 10.4 mg/kg/injection, schedule: Q01DX007 (ip), vehicle: carboxymethylcellulose (CMC)) of the same molecule?
A: Its T/C is 51 % of control.

Q: And the T/C (dose: 13.0 mg/kg/injection, schedule: Q01DX007 (ip), vehicle: carboxymethylcellulose (CMC))?
A: Its T/C is 66 % of control.

Q: What about the T/C (dose: 13.0 mg/kg/injection, schedule: Q#A X014 (ip), vehicle: carboxymethylcellulose (CMC)) of the same molecule?
A: The T/C was 28 % of control.

Q: And the T/C (dose: 14.5 mg/kg/injection, schedule: Q01DX007 (ip), vehicle: carboxymethylcellulose (CMC))?
A: Its T/C is 73 % of control and 83 % of control.

Q: What about the T/C (dose: 14.5 mg/kg/injection, schedule: Q#A X014 (ip), vehicle: carboxymethylcellulose (CMC)) of the same molecule?
A: The T/C was 48 % of control.

Q: And the T/C (dose: 15.0 mg/kg/injection, schedule: Q01DX007 (ip), vehicle: other)?
A: The T/C was 101 % of control.

Q: What about the T/C (dose: 15.0 mg/kg/injection, schedule: Q#A X014 (ip), vehicle: methylcellulose (MC)) of the same molecule?
A: The T/C was 60 % of control.

Q: And the T/C (dose: 17.3 mg/kg/injection, schedule: Q01DX007 (ip), vehicle: carboxymethylcellulose (CMC))?
A: Its T/C is 51 % of control.

Q: And the T/C (dose: 19.0 mg/kg/injection, schedule: Q01DX007 (ip), vehicle: carboxymethylcellulose (CMC))?
A: Its T/C is 72 % of control.

Q: What about the T/C (dose: 23.2 mg/kg/injection, schedule: Q01DX007 (ip), vehicle: carboxymethylcellulose (CMC)) of the same molecule?
A: Its T/C is 49 % of control.

Q: What about the T/C (dose: 25.0 mg/kg/injection, schedule: Q#A X014 (ip), vehicle: methylcellulose (MC)) of the same molecule?
A: The T/C was 55 % of control.

Q: And the T/C (dose: 26.0 mg/kg/injection, schedule: Q01DX007 (ip), vehicle: carboxymethylcellulose (CMC))?
A: The T/C was 36 % of control.

Q: And the T/C (dose: 26.0 mg/kg/injection, schedule: Q#A X014 (ip), vehicle: carboxymethylcellulose (CMC))?
A: Its T/C is 32 % of control.

Q: And the T/C (dose: 29.0 mg/kg/injection, schedule: Q#A X014 (ip), vehicle: carboxymethylcellulose (CMC))?
A: The T/C was 20 % of control.

Q: What about the T/C (dose: 30.0 mg/kg/injection, schedule: Q01DX007 (ip), vehicle: other) of the same molecule?
A: The T/C was 78 % of control.

Q: What about the T/C (dose: 37.5 mg/kg/injection, schedule: Q#A X014 (ip), vehicle: methylcellulose (MC)) of the same molecule?
A: Its T/C is 34 % of control.

Q: What about the T/C (dose: 38.6 mg/kg/injection, schedule: Q01DX007 (ip), vehicle: carboxymethylcellulose (CMC)) of the same molecule?
A: Its T/C is 36 % of control.

Q: What about the T/C (dose: 43.5 mg/kg/injection, schedule: Q01DX007 (ip), vehicle: carboxymethylcellulose (CMC)) of the same molecule?
A: Its T/C is 27 % of control and 47 % of control.

Q: What about the T/C (dose: 44.0 mg/kg/injection, schedule: Q01DX007 (ip), vehicle: carboxymethylcellulose (CMC)) of the same molecule?
A: Its T/C is 49 % of control.

Q: What about the T/C (dose: 50.0 mg/kg/injection, schedule: Q#A X014 (ip), vehicle: methylcellulose (MC)) of the same molecule?
A: Its T/C is 14 % of control.

Q: What about the T/C (dose: 58.0 mg/kg/injection, schedule: Q01DX007 (ip), vehicle: carboxymethylcellulose (CMC)) of the same molecule?
A: Its T/C is 14 % of control and 21 % of control and 28 % of control.

Q: What about the T/C [1] of the same molecule?
A: Its T/C is 33 % of control and 47 % of control.

Q: What about the T/C (dose: 66.0 mg/kg/injection, schedule: Q01DX007 (ip), vehicle: carboxymethylcellulose (CMC)) of the same molecule?
A: The T/C was 34 % of control.

Q: And the T/C (dose: 100.0 mg/kg/injection, schedule: Q01DX007 (ip), vehicle: carboxymethylcellulose (CMC))?
A: Its T/C is 24 % of control.

Q: Which results are given for CCC(c1ccc2cc(OC)ccc2c1)C(C)(C)C(=O)F (configuration not stated)?
A: T/C (dose: 55.0 mg/kg/injection, schedule: Q01DX007 (sc), vehicle: steriod suspending solution): 35 % of control and 52 % of control; T/C (dose: 83.0 mg/kg/injection, schedule: Q01DX007 (sc), vehicle: steriod suspending solution): 31 % of control and 49 % of control; T/C (dose: 125.0 mg/kg/injection, schedule: Q01DX007 (sc), vehicle: steriod suspending solution): 27 % of control and 39 % of control; T/C (dose: 188.0 mg/kg/injection, schedule: Q01DX007 (sc), vehicle: steriod suspending solution): 39 % of control and 40 % of control

Q: With COc1ccc2c(=O)cc(-c3ccccc3)n(C)c2c1 as the molecule, how does the T/C (dose: 50.0 mg/kg/injection, schedule: Q01DX007 (ip), vehicle: saline) read?
A: The T/C was 68 % of control.

Q: And the T/C (dose: 100.0 mg/kg/injection, schedule: Q01DX007 (ip), vehicle: saline)?
A: Its T/C is 110 % of control.

Q: And the T/C (dose: 200.0 mg/kg/injection, schedule: Q01DX007 (ip), vehicle: saline)?
A: The T/C was 109 % of control.

Q: And the T/C (dose: 400.0 mg/kg/injection, schedule: Q01DX007 (ip), vehicle: saline)?
A: The T/C was 76 % of control.

Q: Which results are given for O=C1CCCCC1C(=O)C(F)(F)F (configuration not stated)?
A: T/C (dose: 27.75 mg/kg/injection, schedule: Q#A X014 (ip), vehicle: methylcellulose (MC)): 64 % of control; T/C (dose: 27.75 mg/kg/injection, schedule: Q#A X014 (ip), vehicle: saline): 64 % of control; T/C (dose: 41.65 mg/kg/injection, schedule: Q#A X014 (ip), vehicle: methylcellulose (MC)): 79 % of control; T/C (dose: 41.65 mg/kg/injection, schedule: Q#A X014 (ip), vehicle: saline): 81 % of control; T/C (dose: 55.0 mg/kg/injection, schedule: Q01DX007 (ip), vehicle: saline): 61 % of control; T/C (dose: 62.5 mg/kg/injection, schedule: Q#A X014 (ip), vehicle: methylcellulose (MC)): 34 % of control; T/C (dose: 62.5 mg/kg/injection, schedule: Q#A X014 (ip), vehicle: saline): 28 % of control; T/C (dose: 83.0 mg/kg/injection, schedule: Q01DX007 (ip), vehicle: saline): 44 % of control; T/C (dose: 93.75 mg/kg/injection, schedule: Q#A X014 (ip), vehicle: methylcellulose (MC)): 35 % of control and 52 % of control; T/C (dose: 93.75 mg/kg/injection, schedule: Q#A X014 (ip), vehicle: saline): 37 % of control; T/C (dose: 110.0 mg/kg/injection, schedule: Q02DX004 (ip), vehicle: saline): 40 % of control; T/C (dose: 125.0 mg/kg/injection, schedule: Q01DX007 (ip), vehicle: saline): 62 % of control; T/C (dose: 165.0 mg/kg/injection, schedule: Q03DX003 (ip), vehicle: saline): 63 % of control; T/C (dose: 166.0 mg/kg/injection, schedule: Q02DX004 (ip), vehicle: saline): 97 % of control; T/C (dose: 187.0 mg/kg/injection, schedule: Q01DX007 (ip), vehicle: saline): 47 % of control; T/C (dose: 250.0 mg/kg/injection, schedule: Q02DX004 (ip), vehicle: saline): 82 % of control; T/C (dose: 352.0 mg/kg/injection, schedule: Q03DX003 (ip), vehicle: carboxymethylcellulose (CMC)): 83 % of control; T/C (dose: 561.0 mg/kg/injection, schedule: Q03DX003 (ip), vehicle: saline): 53 % of control
